Each structure is given as a SMILES string.

This assay concerns the target T1, Recombinant full length human OGA enzyme (Homo sapiens, UniProt O60502).
T1 construct: Recombinant full length human OGA enzyme was purchased from Origene; purchased Origene
T1 sequence (O60502 1-916): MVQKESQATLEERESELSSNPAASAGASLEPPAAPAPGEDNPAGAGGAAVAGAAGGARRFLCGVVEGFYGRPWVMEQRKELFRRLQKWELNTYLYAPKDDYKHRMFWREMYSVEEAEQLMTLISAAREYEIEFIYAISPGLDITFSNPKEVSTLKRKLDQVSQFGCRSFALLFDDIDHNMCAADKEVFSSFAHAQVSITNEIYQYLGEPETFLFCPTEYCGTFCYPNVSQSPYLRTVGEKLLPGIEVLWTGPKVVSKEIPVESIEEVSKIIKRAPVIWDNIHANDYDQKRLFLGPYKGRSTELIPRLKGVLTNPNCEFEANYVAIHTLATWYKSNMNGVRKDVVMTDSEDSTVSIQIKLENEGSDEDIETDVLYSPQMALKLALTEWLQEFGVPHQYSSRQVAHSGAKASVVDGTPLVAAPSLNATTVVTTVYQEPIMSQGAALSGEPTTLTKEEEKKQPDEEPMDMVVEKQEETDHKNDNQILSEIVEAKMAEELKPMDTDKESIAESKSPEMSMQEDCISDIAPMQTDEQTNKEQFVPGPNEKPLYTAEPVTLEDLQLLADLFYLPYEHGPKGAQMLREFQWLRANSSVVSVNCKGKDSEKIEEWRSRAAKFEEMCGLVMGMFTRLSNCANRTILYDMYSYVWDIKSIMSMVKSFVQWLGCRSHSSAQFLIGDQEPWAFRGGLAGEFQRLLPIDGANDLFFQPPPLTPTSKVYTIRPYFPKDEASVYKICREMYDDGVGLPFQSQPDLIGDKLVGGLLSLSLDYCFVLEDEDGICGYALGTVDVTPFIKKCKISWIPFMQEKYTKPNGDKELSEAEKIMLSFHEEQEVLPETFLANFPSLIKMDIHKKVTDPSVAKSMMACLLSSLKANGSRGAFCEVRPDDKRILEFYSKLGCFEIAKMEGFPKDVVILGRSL
The experiment in a line: OGA Enzyme Inhibition Biochemical Assay. Particulars: 1 nM OGA, 100 μM 4-MUGlcNAc (Km), pH 6.4, 90 minutes at room temperature, 10-point dose-response from 20 μM. Here is the method: OGA Enzyme Inhibition Biochemical Assay
Recombinant full length human OGA enzyme was purchased from Origene. 4-MUGlCNAc substrate was purchased from Sigma. All other reagents were purchased from Sigma or Fisher. Assay buffer consists of the McIlvaine buffer system, pH 6.4 (0.2M Na2HPO4 mixed with 0.1M citric acid) and 0.01% BSA. Reactions consist of 1 nM OGA, 100 μM 4-MUGlcNAc (Km), and compound in a final volume of 10 μl. Reactions were incubated for 90 minutes at room temperature and quenched with 40 μl of 3M glycine, pH 10 and read on a Perkin Elmer Envision plate reader (Ex: 355 nm/Em: 460 nm). Compounds were tested with a 10-point dose-response starting from 20 μM with a 4-fold dilution. Data was fit using GraphPad Prism using a 4-parameter fit with variable slope.
In the case of `CC(=O)Nc1ncc(CN2CCC[C@H](Cc3ncc(F)c(C)n3)C2)s1` [Example 2-7, (R)-N-(5-((3-((5-fluoro-4-methylpyrimidin-2-yl)methyl)piperidin-1-yl)methyl)thiazol-2-yl)acetamide], the IC50 was 3 nM. The figure for `CC(=O)Nc1ncc(CN2CCCC(Cc3ncnc4ccsc34)C2)s1` (centres unmarked) [Example 1-44, N-(5-((3-(thieno[3,2-d]pyrimidin-4-ylmethyl)piperidin-1-yl)methyl)thiazol-2-yl)acetamide] is 2 nM. Regarding `COc1ccc(CC2CCCN(Cc3cnc(NC(C)=O)s3)C2)cc1` (centres unmarked) [Example 1-4, N-(5-((3-(4-methoxybenzyl)piperidin-1-yl)methyl)thiazol-2-yl)acetamide], the IC50 was determined as 8 nM.

In the case of `CC(=O)Nc1ncc(CN2C[C@@H](Cc3ncc(F)cn3)CC[C@H]2C)s1` (single isomer, unassigned) [Example 2-24], the concentration for half-maximal inhibition (IC50) is 1100 nM.

For `CC(=O)Nc1ncc(CN2CCC[C@H](Cc3ncc(F)cn3)C2)s1` [Example 3-1, N-[5-[[(3R)-3-[(5-fluoropyrimidin-2-yl)methyl]-1-piperidyl]methyl]thiazol-2-yl]acetamide], the IC50 came out at 1 nM. Regarding `CC(=O)Nc1ncc(CN2CCCC(Cc3ccccn3)C2)s1` (centres unmarked) [Example 1-2, N-(5-((3-(pyridin-2-ylmethyl)piperidin-1-yl)methyl)thiazol-2-yl)acetamide], the IC50 came to 4 nM.

`CC(=O)Nc1ncc(CN2CCCC(Cc3ncc(C)s3)C2)s1` (centres unmarked) [Example 1-35, N-(5-((3-((5-methylthiazol-2-yl)methyl)piperidin-1-yl)methyl)thiazol-2-yl)acetamide]: the IC50 turned out to be 5 nM. Regarding `CC(=O)Nc1ncc(CN2CC[C@H](C)[C@H](Cc3ncc(F)cn3)C2)s1` (single isomer, unassigned) [Example 2-39], the IC50 came to 1 nM.

Turning to `CC(=O)N(C)c1ncc(CN2CCC[C@H](Cc3ncc(F)cn3)C2)s1` [Example 3-16, N-[5-[[(3R)-3-[(5-fluoropyrimidin-2-yl)methyl]-1-piperidyl]methyl]thiazol-2-yl]-N-methyl-acetamide], the IC50 amounted to 19 nM. For `CC(=O)Nc1nc(F)c(CN2CC[C@H](Cc3ccnc(C)c3)C2)s1` [Example 3-33, (S)—N-(4-fluoro-5-((3-((2-methylpyridin-4-yl)methyl)pyrrolidin-1-yl)methyl)thiazol-2-yl)acetamide] the value was 4.8 nM. The figure for `CC(=O)Nc1ncc(CN2CC[C@@H](Cc3ncc(F)cn3)C2)s1` (single isomer, unassigned) [Example 2-2] is 114 nM; for `CC(=O)N(C)c1nc(F)c(CN2CC[C@H](Cc3ncc(F)cn3)C2)s1` [Example 3-37, (R)-N-(4-fluoro-5-((3-((5-fluoropyrimidin-2-yl)methyl)pyrrolidin-1-yl)methyl)thiazol-2-yl)-N-methylacetamide] it is 79 nM.

Turning to `CC(=O)Nc1ncc(CN2CCC[C@@H]([C@@H](C)c3ncc(F)cn3)C2)s1` (single isomer, unassigned) [Example 2-29], the IC50 worked out at 1 nM.

`CC(=O)Nc1ncc([C@@H](C)N2CCC[C@H](Cc3ncc(F)cn3)C2)s1` (single isomer, unassigned) [Example 2-10]: the IC50 amounted to 29 nM.

As for `COc1nccc(CC2CCCN(Cc3cnc(NC(C)=O)s3)C2)c1C` (centres unmarked) [Example 2-3, N-(5-((3-((2-methoxy-3-methylpyridin-4-yl)methyl)piperidin-1-yl)methyl)thiazol-2-yl)acetamide], the IC50 turned out to be 2 nM. For `CC(=O)Nc1ncc(CN2C[C@@H](Cc3ncc(F)cn3)C[C@@H]2C(F)(F)F)s1` (single isomer, unassigned) [Example 2-46] the value was 3900 nM; for `CC(=O)Nc1nc(F)c(CN2C[C@@H](Cc3ncc(F)cn3)C[C@H]2C)s1` [Example 3-42, N-(4-fluoro-5-(((2R,4R)-4-((5-fluoropyrimidin-2-yl)methyl)-2-methylpyrrolidin-1-yl)methyl)thiazol-2-yl)acetamide], under 1 nM.

What is called IC50 is the concentration needed to halve the response being measured.
